These results are taken from PMC11345766, “Computational Design of Pore-Forming Peptides with Potent Antimicrobial and Anticancer Activities” (Journal of Medicinal Chemistry, 2024).

Read-outs that look alike come from different tables or passages of the source. Ends that are not written are not given here. Bounds are passed on as bounds.

The conditions of series [1]: single intraperitoneal dose at 10 times the MIC.
Experimental: Neutropenic mice were infected intramuscularly (in the right thigh) with 10^6 cells per mL of Gram-negative A. baumannii (ATCC 19606).
(a) Schematic of the deep thigh infection model in which bacteria are injected intramuscularly at day 4 and peptides are administered intraperitoneally also at day 4 to assess their anti-infective activity. Mice were euthanized 4 days postinfection (day 8). Each group consisted of six mice (n = 6), and the bacterial loads used to infect the mice derived from three different inocula. […] Polymyxin B (0.006 mg/kg) and levofloxacin (0.014 mg/kg) were used as the reference antibiotics. Statistical significance was done using one-way ANOVA followed by Dunnett’s test. Violin plots represent the median, upper quartile, and lower quartile. (c) Mouse weight was monitored to exclude possible toxic effects of the peptides.
Six-week-old female CD-1 mice (obtained from Charles River; stock number 18679700-022) underwent neutropenia induction via two intraperitoneal doses of cyclophosphamide (150 mg kg^–^1) administered with a 72 h interval. One day later, the mice received an intramuscular injection containing A. baumannii ATCC 19606 (10^6 CFU mL^–1) in the right thigh. Bacteria were cultured in LB broth, washed twice with PBS (pH 7.4), and resuspended to the desired concentration. […] Polymyxin B (0.006 mg/kg) and levofloxacin (0.014 mg/kg) were used as the reference antibiotics. Prior to each injection, mice were anesthetized with isoflurane and their respiratory rate and pedal reflexes were monitored. Subsequently, we observed the infection establishment and euthanized the mice. The infected area was excised 4 days postinfection (i.e., 8 days after the beginning of the experiment), homogenized using a bead beater for 20 min (25 Hz), and 10-fold serially diluted for CFU quantification on MacConkey agar plates. Each experimental group comprised three mice. All experiments were conducted blindly, and no animals were excluded from the analysis. Statistical significance was assessed using one-way ANOVA followed by Dunnett’s test on log10-transformed data to mitigate outlier effects; p values are reported for each group, with all groups compared to the untreated control group.
Series [2] relates to normal B and T lymphocytes, granulocytes, and monocytes in whole blood. The series can be described thus: Viability by flow cytometric staining in whole blood. The settings on record: up to the highest tested concentration of 50 μM; 16 h. The class given is cell-based, human. The protocol:
Finally, we tested the effect of LP1 and LP40 on healthy primary cells in whole blood from a healthy donor (Figure S11).
The whole blood was seeded in a 96-well plate at 200 μL/well and treated with peptides for 16 h. The samples were then stained with anti-CD3 (FITC, Sony), anti-CD14 (APC-Cy7, Sony), and anti-CD19 (PE, Beckman Coulter) antibodies and incubated for 20 min at room temperature in the dark. The cells were then incubated with red blood cell lysis buffer for 10 min at room temperature, centrifuged, resuspended in PBS containing SYTOX Blue Dead Cell Stain (Thermo Fisher Scientific) and measured using a FACSVerse flow cytometer (BD Biosciences).

The procedure of series [3]:
(§1) Cytotoxicity against human immortalized keratinocytes HaCaT, human alveolar basal epithelial A549 (derived from adenocarcinoma), and murine macrophages RAW 264.7 was tested using MTT [3-(4,5-dimethylthiazol-2-yl)-2,5-diphenyltetrazolium bromide] assay. Cells were cultured in Dulbecco’s modified Eagle’s medium (DMEM) containing 4 mM glutamine for HaCaT, or 2 mM glutamine for A549 and RAW 264.7 cells, supplemented with 10% heat-inactivated fetal bovine serum (FBS) and antibiotics (0.1 mg/mL penicillin and streptomycin). Nonessential amino acids (NEAA) and sodium pyruvate (1 mM) were added for macrophages. Cell lines were grown in 25 and 75 cm^2 flasks at 37 °C in a humidified atmosphere with 5% CO2. Cells were suspended in DMEM, containing glutamine, NEAA, and sodium pyruvate (as described above), supplemented with 2% FBS, plated in 96-well plates at 4 × 10^4 cells/well, and incubated at 37 °C in a 5% CO2 atmosphere. After overnight incubation, the medium was replaced with fresh DMEM supplemented with peptides at different concentrations: 2, 4, 8, 16, 32, 64, and 128 μM. Negative controls were cells without peptides. After 24 h of peptide treatment at 37 °C in a 5% CO2 atmosphere, medium was replaced with Hank’s buffer (136 mM NaCl, 0.34 mM Na2HPO4, 0.44 mM KH2PO4, 5.4 mM KCl, 4.1 mM NaHCO3, supplemented with 5.5 mM D-glucose) containing 0.5 mg/mL MTT. Mitochondrial dehydrogenases converted soluble yellow dye MTT to insoluble purple formazan. After 4 h of incubation, acidified isopropanol was added to dissolve formazan crystals and measured for OD570 using Tecan microplate reader Infinite M200 (Salzburg, Austria).

The procedure of series [4]: as §1, with “After 24 h of peptide treatment at 37 °C in a 5% CO2 atmosphere, medium was replaced with Hank’s buffer (136 mM NaCl, 0.34 mM Na2HPO4, 0.44 mM KH2PO4, 5.4 mM KCl, 4.1 mM NaHCO3, supplemented with 5.5 mM D-glucose) containing 0.5 mg/mL MTT. Mitochondrial dehydrogenases converted soluble yellow dye MTT to insoluble purple formazan.” left out
This is another data set of the same source.

How the values of series [5] were obtained:
as §1
The source holds these as a separate data set.

Another series deals with S. carnosus (CCM 4838T). Put plainly: microbe, parasite or virus in culture. The class given is cell-based, Staphylococcus carnosus. The settings on record: CCM 4838, 24 h; read-out: Antimicrobial activity (MIC) S. carnosus (CCM 4838T). The text has this: (§2) To test antimicrobial activity, all peptides were initially screened, in a broth microdilution assay, against Gram-negative Escherichia coli (TOP10) and Gram-positive Staphylococcus carnosus (CCM 4838T) Biosafety Level 1 (BSL-1) bacteria (Table 2). […] Four other mutants (LP3, LP26, LP36, and LP39) had higher activity than LP1 against E. coli, and two mutants (LP23 and LP32) had higher activity than LP1 against S. carnosus. Six mutants (LP29, LP30, LP31, LP33, LP40, and LP43) were not active against one or both bacteria, even at the highest concentration tested (50 μM).
(§3) Antimicrobial activity against E. coli TOP10 and S. carnosus CCM 4838T was tested using the broth microdilution assay. Bacteria were cultured in MHA Petri dish for 24 h, subcultured in an MHB test tube for 6 h at 37 °C, and diluted to 10^6 CFU/mL (OD600). […] Dilution series was prepared for concentrations 50 to 0.1 μM in a flat-bottom 96-well plate, inoculated with bacteria, and incubated for 24 h at 37 °C. Growth control wells were free from test compounds, and sterility control wells were free from bacteria. Bacterial MIC was determined as the lowest concentration of test compounds that inhibited visible growth of bacteria (i.e., no visible turbidity).

Series [6] deals with human red blood cells (HRBCs). The conditions noted are these: read-out: Hemolysis toxicity (IC50); 1 h incubation. Here is the method: To investigate the toxicity for normal human cells, all peptides were first screened against human red blood cells (HRBCs) using a hemolysis assay (Table 2 and Figure S4).
Hemolysis toxicity was tested against HRBCs. Blood samples, collected from the university hospital, were centrifuged twice at 700 × g and once at 1000 × g for 8 min at 4 °C to obtain erythrocyte pellets. Supernatants were always discarded, and pellets were resuspended in PBS (the same as the antimicrobial susceptibility assay). The final RBC suspension was 0.5% (v/v). Dilution series was prepared for concentrations 50 to 0.1 μM in a V-bottom 96-well plate, followed by the addition of RBC suspension. […] After 1 h of incubation at 37 °C, the well plate was centrifuged at 1000 × g for 10 min at 4 °C. The supernatant, collected in a flat-bottom well plate, was measured for OD415 using Tecan Microplate Reader Infinite F500.

Series [7] in a line: Calcein dye leakage assay from LUVs. The series is classed as biochemical. The conditions noted are these: P:L 1:100; pH 7.4. The text has this:
To verify the pore-forming mechanism of action of the designed AMPs, we performed a calcein leakage assay. […] These lipid vesicles were used as simple mimics of bacterial membranes.[58] At the lowest tested peptide-to-lipid (P:L) ratio of 1:100 (mol/mol), three mutants (LP18, LP26, and LP40) caused >90% leakage, which was higher than the leakage caused by LP1 (87%). […] At the same concentration, LP23 caused leakage equivalent to that caused by LP1. Other mutants had lower leakage activity. At a higher P:L ratio of 1:50, all the abovementioned mutants caused 100% leakage, equivalent to that caused by LP1.
Pore-forming activity was tested using a dye leakage assay measuring the leakage of self-quenching fluorescent dye calcein from POPC:POPG (1:1 mol/mol) LUVs. DiD was mixed with lipids (1:500 mol/mol), and lipid film was created by evaporating chloroform, followed by 4 h of desiccation. Dried lipid film was dissolved in calcein buffer (35 mM calcein, 25 mM NaH2PO4·H2O and Na2HPO4·7H2O (3:7 mol/mol), 20 mM NaCl, and 1 mM EDTA). After 10 freeze–thaw cycles, the sample was extruded 50 times through a 100 nm pore size polycarbonate membrane filter. Free calcein in solution was removed using a HiTrap Desalting column. The concentrations of LUVs and peptides were adjusted to 0.02 and 0.1 mM, respectively, in PBS (25 mM NaH2PO4·H2O and Na2HPO4·7H2O (3:7 mol/mol), 100 mM NaCl, and 1 mM EDTA). The investigated P/L ratio was from 1:100 to 1:10 (mol/mol). Fluorescence intensity was measured using a HORIBA Scientific Jobin Yvon FluoroLog-3 Modular Spectrofluorometer (USA). Excitation and emission wavelengths were set to 495 and 520 nm, respectively. Triton X-100 10% caused 100% leakage used for normalization.

A further series deals with E. coli (TOP10). Put plainly: Broth microdilution antimicrobial susceptibility assay. The conditions noted are these: TOP10, 24 h. The class given is cell-based, Escherichia coli.
Source text: as §2, §3

The subject of another series is E. coli (E1098). The settings on record: E1098, 18 h.
For series [8], the system named is murine macrophages RAW 264.7. The conditions noted are these: 24 h. The protocol:
as §1

Series [9] concerns HL-60, K-562, MCF-7 and HCT-116 cells. The series can be described thus: Viability by flow cytometry DiOC6/7AAD staining, effect of pH and media. The settings on record: 10 μM, 1 h; RPMI, DMEM, PBS at pH 8, 7, 6 and ∼7.6. The class given is cell-based, human. The protocol: To investigate the effect of pH and media on anticancer activity, we further tested the peptides against four cell lines, HL-60, K-562, and MCF-7, and the colon cancer cells HCT-116, cultured in three different media, namely, RPMI, DMEM, and PBS, each adjusted to three different pH values 8, 7, and 6, and additionally one case without pH adjustment (∼7.6) (Figure 6c). To avoid pH changes due to the natural buffering of the CO2-bicarbonate system used in cell culture, the peptides were tested at a concentration of 10 μM for only 1 h, as the cell lysis effect was already apparent within 30 min of exposure (Figure S9d).
Effects of pH and culture medium on the anticancer activity of peptides against acute myeloid leukemia HL-60, chronic myeloid leukemia K-562, breast adenocarcinoma MCF-7, and colon cancer cells HCT-116 cultured in three different media RPMI (#21875034, Gibco), DMEM (#LM-D1110/500, Biosera), and PBS adjusted to three different pH values 8, 7, and 6, and a medium without pH adjustment (∼7.6), were tested using flow cytometry DiOC6/7AAD (3,3-dihexyloxacarbocyanine iodide/7-amino-actinomycin D) staining assay, as described previously.[102] Media pH was adjusted twice, i.e., 1 day before the experiment and immediately before the experiment. Medium was supplemented with 10% heat-inactivated FBS, glutamine, sodium pyruvate, and antibiotics (100 U/mL penicillin and 100 μg/mL streptomycin). […] To determine cell viability, cells were incubated with DiOC6 (Thermo Fisher Scientific) and 7AAD (Thermo Fisher Scientific) for 15 min at 37 °C and cell viability was measured using a BriCyte E6 flow cytometer (Mindray); viable cells were considered as DiOC6-positive and 7AAD-negative.
The effect of pH on peptide activity in cancer cells was evaluated by the multiway ANOVA followed by Tukey post hoc test. Regarding the comparison of the effect of the medium, we analyzed the data from Figure 6c by comparing RPMI medium and DMEM of the same pH, and statistical significance was assessed using the multiway ANOVA followed by Tukey post hoc test. […]

Series [10] concerns MOLM-13, MEC-1 and SU-DHL-4 cancer cell lines. The settings on record: read-out: IC50 values over three cancer cell lines; after 24 h of incubation; physiological pH. Here is the method: Anticancer activity of peptides against acute myeloid leukemia MOLM-13, chronic lymphocytic leukemia MEC-1, and diffuse large B-cell lymphoma SU-DHL-4 cell lines was tested using a WST cell viability assay. Cells were cultured in 75 cm^2 culture flasks at 37 °C in 5% CO2 according to the DSMZ recommendations before the start of the experiment. Then, the cells were seeded into 96-well plates in quadruplicate at 2.5 × 10^4 cells/well for SU-DHL-4, and 5 × 10^4 cells/well for MEC-1 and MOLM-13. Cells were treated with either peptides or PBS alone (negative control) for 24–72 h at 37 °C in 5% CO2. After incubation, cell viability was measured by WST-1 (Roche) according to the manufacturer’s instructions using Tecan microplate reader Infinite M200 PRO Plex and expressed as percentage compared to control.

For HHHHLKKILKKLFQFINQLDNQLQDIHHHH [LP40], the “Change in mouse weight” value in [1] is recorded as “no significant change in mouse weight”. Further, the “Effect on healthy primary cells in whole blood” value in series [2] is on record as “no apparent deleterious effect”. In addition, the half-inhibitory concentration (IC50) in series [3], in series [4] and in series [5] was over 70 µM in each case.

“KKKKIKKIIKKIFQFINQIDNQIQDIKQNK-NH2 [LP33]”: the figures for the MIC in the series on S. carnosus (CCM 4838T) and in the series on E. coli (TOP10) were over 50 µM and 50 µM, respectively. The half-maximal inhibitory concentration (IC50) (as a rule, the concentration at which inhibition is half-maximal) was over 128 µM in series [3], over 50 µM in series [6], 27 µM in series [4] and under 2 µM in series [5]. For the same compound, the “Calcein leakage (%) from LUVs at P:L 1:100 (mol/mol)” value in [7] is listed as 28.3 ± 9.3%.

As for “KKKKLKKILKKLFQFIQQLDQQLQDIKQQK-NH2 [LP35]”, the figures for the MIC with S. carnosus (CCM 4838T), with E. coli (E1098) and against E. coli (TOP10) were 0.4 µM, 0.5 µM and 0.4 µM, respectively. Moreover, the midpoint of inhibition in [8], the IC50, lay at 36 µM. Besides, the “Calcein leakage (%) from LUVs at P:L 1:100 (mol/mol)” value in [7] was 63.3 ± 6.7%.

In the case of `CC[C@H](C)[C@H](NC(=O)CN)C(=O)NCC(=O)N[C@@H](C)C(=O)N[C@H](C(=O)N[C@@H](CC(C)C)C(=O)N[C@@H](CCCCN)C(=O)N[C@H](C(=O)N[C@@H](CC(C)C)C(=O)N[C@H](C(=O)N[C@H](C(=O)NCC(=O)N[C@@H](CC(C)C)C(=O)N1CCC[C@H]1C(=O)N[C@@H](C)C(=O)N[C@@H](CC(C)C)C(=O)N[C@H](C(=O)N[C@@H](CO)C(=O)N[C@@H](Cc1c[nH]c2ccccc12)C(=O)N[C@H](C(=O)N[C@@H](CCCCN)C(=O)N[C@@H](CCCNC(=N)N)C(=O)N[C@@H](CCCCN)C(=O)N[C@@H](CCCNC(=N)N)C(=O)N[C@@H](CCC(N)=O)C(=O)N[C@@H](CCC(N)=O)C(N)=O)[C@@H](C)CC)[C@@H](C)CC)[C@@H](C)O)[C@@H](C)O)C(C)C)C(C)C` [Melittin, reference compound], the “Activity against cancer cells (cell viability) as a function of pH and medium” value in series [9] is “did not allow cell growth”. Moreover, the half-inhibitory concentration (IC50) in [10] is under 5 µM.
